Experimental data from US4731459A, “Novel anti-ulcer agents and quassinoids” (Shionogi & Co., Ltd., priority 1985, dated 1988).
Where two headings read alike, the source gives them in different places.

Key:
[1] = test system: ulcer caused by indomethacin (mucosal lesions in the glandular part of the stomach); assay: Effect on ulcer caused by indomethacin; type: in vivo, male SD rats; settings: Rattus norvegicus, ip, read-out: % Inhibition of lesion formation
Protocol: Indomethacin is subcutaneously administered to male SD rats (body weight: 200-220 g) fasted for 24 hours at a dose of 30 mg/kg. The stomachs are excised 7 hours after the administration. The total length of mucosal lesions occurred in the glandular part of the stomach is measured and % inhibition of lesion formation is calculated in comparison with those in the control group. Fifteen minutes before the administration of indomethacin, the test compounds are intraperitoneally administered in a form of aqueous solution.

[2] = Acute Toxicities; settings: mouse, in vivo, ip; intraperitoneal, aqueous solution; male ddY mice
Description: Male ddY mice (Body weight 25-28 g each) are employed for the acute toxicity test. The test compounds are intraperitoneally administered in a form of aqueous solution.

[3] = 0.3 mg/Kg, intraperitoneal, 15 min before indomethacin 30 mg/kg s.c., male SD rats, 7 hours
[4] = 1.0 mg/Kg, intraperitoneal, 15 min before indomethacin 30 mg/kg s.c., male SD rats, 7 hours
[5] = 3.0 mg/Kg, intraperitoneal, 15 min before indomethacin 30 mg/kg s.c., male SD rats, 7 hours

SMILES | inhibition in vivo at 3 mg/kg ([1]; 7 h) | inhibition in vivo at 3 mg/kg [1, 5] | LD50 [2] | other results
C=C1[C@@H](O)[C@]2(O)OC[C@]34[C@H]2[C@@]2(C)[C@H](O)C(=O)CC(C)[C@@H]2C[C@H]3OC(=O)[C@H](O)[C@@]14O (single isomer, unassigned) [IIh, 3,4-Dihydroeurycomanone] | -10% | – | – | –
CC1=CC(=O)[C@@H](O)[C@]2(C)[C@H]3[C@@]4(O)OC[C@@]35[C@@H](C[C@@H]12)OC(=O)C[C@H]5[C@]1(CO1)[C@H]4O [IIa, 13α,18-Epoxy-13,18-dihydroailanthone] | – | 100% | > 100 mg/kg | inhibition in vivo at 0.3 mg/kg [1, 3]: 36.8%; inhibition in vivo at 1 mg/kg [1, 4]: 77.1%
CC1=CC(=O)[C@@H](O)[C@]2(C)[C@H]3[C@@]4(O)OC[C@@]35[C@@H](C[C@@H]12)OC(=O)C[C@H]5[C@@]1(CO1)[C@H]4O [IIb, 13β,18-Epoxy-1,3,18-dihydroailanthone] | – | 74.4% | > 30 mg/kg | –
CC1CC(=O)[C@@H](O)[C@]2(C)[C@H]3[C@@]4(O)OC[C@@]35[C@@H](C[C@@H]12)OC(=O)C[C@H]5C(C)[C@H]4O (stereo partly shown) [IIc, 3,4,13,18-Tetrahydroailanthone] | – | 13.7% | > 30 mg/kg | –
CC1=CC(=O)[C@@H](O)[C@]2(C)[C@H]3[C@@]4(O)OC[C@@]35[C@@H](C[C@@H]12)OC(=O)C[C@H]5C(C)[C@H]4O (stereo partly shown) [IId, 13,18-dihydroailanthone] | 67.8% | – | > 30 mg/kg | –
CC1=CC(=O)[C@@H](O)[C@]2(C)[C@H]3[C@@]4(O)OC[C@@]35[C@@H](C[C@@H]12)OC(=O)[C@H](O)[C@@]5(O)[C@]1(CO1)[C@H]4O [IIe, 13α,18-Epoxy-13,18-dihydroeurycomanone] | 4.9% | – | – | –
CC1=CC(=O)[C@@H](O)[C@]2(C)[C@H]3[C@@]4(O)OC[C@@]35[C@@H](C[C@@H]12)OC(=O)[C@H](O)[C@@]5(O)[C@@]1(CO1)[C@H]4O [IIf, 13β,18-Epoxy-13,18-dihydroeurycomanone] | – | – | 5.5 mg/kg | inhibition in vivo at 0.1 mg/kg ([1]; 7 h): 26.4%; inhibition in vivo at 0.3 mg/kg ([1]; 7 h): 71.3%; inhibition in vivo at 1 mg/kg ([1]; 7 h): 92.6%
CC1=CC(=O)[C@@H](O)[C@]2(C)[C@H]3[C@@]4(O)OC[C@@]35[C@@H](C[C@@H]12)OC(=O)[C@H](O)[C@@]5(O)[C@@H](C)[C@H]4O [IIg-A, 13β,18-Dihydro compound] | 47.1% | – | – | –
CC1=CC(=O)[C@@H](O)[C@]2(C)[C@H]3[C@@]4(O)OC[C@@]35[C@@H](C[C@@H]12)OC(=O)[C@H](O)[C@@]5(O)[C@H](C)[C@H]4O [IIg-B, 13α,18-Dihydro compound] | -3.1% | – | – | –
C=C1[C@@H](O)[C@]2(O)OC[C@]34[C@H]2[C@@]2(C)[C@H](O)C(=O)C=C(C)[C@@H]2C[C@H]3OC(=O)[C@H](O)[C@@]14O [Ib, eurycomanone] | – | – | 18.9 mg/kg | inhibition in vivo at 0.1 mg/kg ([1]; 0.1 mg/Kg, intraperitoneal, 15 min before indomethacin 30 mg/kg s.c., male SD rats, 7 hours): 12.5%; inhibition in vivo at 0.3 mg/kg [1, 3]: 58.5%; inhibition in vivo at 1 mg/kg [1, 4]: 94.7%
